Test results published in US20230271950A1, “ANTIBACTERIAL PICOLINAMIDE COMPOUNDS” (University of Notre Dame Du Lac, priority 2020, published 2023).
In brackets after ≈: the same amount, converted by molar mass. Where two headings read alike, the source gives them in different places.

Key:
[1] = system: Fecal microbiota preparation; assay: MIC against fecal microbiota preparation; type: cell-based; details: Fecal microbiota preparation from OpenBiome tested at 1000-fold dilution
Procedure: Minimum inhibitory concentrations (MIC). MICs for C. difficile strains and the common gut bacteria were determined using broth microdilution techniques as reported earlier using brucella broth supplemented with hemin and vitamin K or supplemented BHIS broth. Lactobacillus MRS broth was used for lactobacillus strains. Sodium lactate was supplemented in the media for Veillonella sp. […] All incubations, unless specified otherwise, were carried out at 24 h or 48 h at 37° C. in an anaerobic chamber (Whitley DG250 workstation, Microbiology International, Frederick, Md.). Corynebacterium and Lactobacillus species were incubated aerobically.

HeLa cells = assay: XTT cytotoxicity assay with HeLa cells; type: cell-based; details: Homo sapiens
Procedure: XTT assay. Cytotoxicity assays were performed in triplicate against HeLa cells (ATCC CCL-2). The IC50 values were calculated by nonlinear regression with GraphPad Prism 5 (San Diego, Calif.).
XTT assay. XTT assays were performed with HeLa cells (ATCC CCL-2) in triplicate, as previously described (Lancet 2008, 371, 1486). IC50 values were determined by nonlinear regression using GraphPad Prism 5 (San Diego, Calif.).

[2] = Pharmacokinetics study in mice (plasma and feces levels); type: in vivo; details: for concentration at 8 h: female, CD-1, mouse
Procedure: Pharmacokinetics (PK) study. Mice (n=2 per time point) were given a single 100 μL solution of 5 mg/mL of compound 1 (equivalent to 20 mg/kg). Terminal blood was collected in heparinized syringes by cardiac puncture at 30 min, 1 h, 2 h, 4 h, and 8 h. The two mice at the 8-h time point were place in metabolism cages for collection of feces. Compound 1 was dissolved in 5% DMSO/95% water with 96 mg/mL of sodium bicarbonate. Blood was centrifuged at 1,000 g for 20 min at 4° C. and plasma was separated and stored at −80° C. until analysis. A 45-μL aliquot of plasma was mixed with 5 μL of H2O:ACN (1:1) and was quenched with 100 μL of acetonitrile containing 20 μM of internal standard (compound 10). The sample was centrifuged at 21,000 g for 15 min at 4° C. to precipitate the proteins, and the resulting supernatant was analyzed by UPLC-TQD detector using multiple-reaction monitoring (MRM). Calibration curves for compound 1 were prepared from 0 to 102.4 μM using a control mouse plasma (50 μL). Peak area ratios relative to internal standard and linear regression was used from which the concentrations in plasma samples from the PK study were determined.
An average of 250 mg of feces were collected at 8 h from two mice, and subsequently homogenized with 6 times the feces volume (1,500 μL of H2O:ACN 1:1) using a Bullet Blender (Next Advance, Inc., Troy, N.Y.). The homogenate was centrifuged at 21,000 g for 5 min. The fecal supernatant (72 μL) was mixed with 8 μL of a solution of H2O:ACN (1:1) and 40 μL of 50 μM of the internal standard in ACN with 0.5% formic acid. A calibration curve was prepared from 0 μM to 102.4 μM in control mouse feces. Plasma and feces were analyzed on a Waters TQD tandem quadrupole detector (Waters Corporation, Milford, Mass.) using a YMC-Triart C18 100 mm×2.0 mm column (3μ, YMC Co. Ltd, Kyoto, Japan). The chromatographic conditions consisted of elution with 30% H2O/70% ACN containing 0.10% formic acid for 5 min at a flow rate 0.5 mL/min. Mass Spectrometry acquisition was performed in the positive electrospray ionization mode with MRM. The capillary, cone, extractor and RF lens voltages were set at 2.8 kV, 40 V, 1 V and 0.1 V, respectively. The desolvation and cone gas (nitrogen) flow rates were 650 L/h and 50 L/h, respectively. The source temperature was set at 150° C. The desolvation temperature was 350° C. The MRM transitions used were 459.4→254.0 for compound 1, and 294.8→133.5 for the internal standard.
Animals. Female C57BL/6 mice weighing 18-20 g and 6-8 weeks of age were used for the efficacy study (Jackson, Bar Harbor, Me.). Female CD-1 mice (24-31 g and 7-8 weeks of age) were used for the PK study. They were housed in groups of five mice in sterile polycarbonate shoeboxes with bedding consisting of ¼-inch corncob (The Andersons Ind., Maumee, Ohio) and Alpha-Dri (Shepherd Specialty Papers, Inc., Richland, Mich.). Mice were maintained on a 12-h light/dark cycle at 72° F. and were given Teklad 2918 irradiated extruded rodent diet and water ad libitum. All procedures were performed in accordance with and approved by the University of Notre Dame Institutional Animal Care and Use Committee.
Pharmacokinetics (PK) Studies. Compounds 4, 87, 107, and 108 were dissolved in 10% DMSO, 25% propylene glycol, 15% Tween 80 and 50% water at concentrations of 5 mg/mL or 10 mg/mL. Compound 116 was dissolved in 5% DMSO, 95% water with 96 mg/mL of sodium bicarbonate. Mice (n=2 per time point) were given a single 100 μL oral gavage of the test compound (equivalent to either 10 mg/kg and/or 20 mg/kg), and terminal blood was collected in heparinized syringes by cardiac puncture at 30 min, 1 h, 2 h, 4 h, and 8 h. An average of 250 mg of feces were collected after 8 h from two mice housed in metabolism cages in each group for further analysis. Blood was centrifuged at 1000 g for 2 min at 4° C. to obtain plasma. Plasma and fecal samples were stored at −80° C. until analysis. […]

[3] = system: C. difficile strain ATCC43255; assay: Serial passage for development of resistance; type: cell-based, Clostridioides difficile; details: for increase of MIC on serial passage: C. difficile ATCC43255, 25 passages; for MIC: Clostridioides difficile
CDI = details: patients treated with the antibiotic; cited from earlier work
[4] = 20 mg/kg single oral administration
[5] = single oral gavage, dose 20 mg · kg^−1, feces collected after 8 h, read-out: Drug concentration in fecal samples (mg kg^−1 feces)

In the case of `O=C(O)c1ccc2oc(NC(=O)c3cc(Oc4cccc(OC(F)(F)F)c4)ccn3)nc2c1` [Compound 1, Sodium 2-(4-(3-(trifluoromethoxy)phenoxy)picolinamido)benzo[d]oxazole-5-carboxylate], the MIC [1] is reported as > 128 µg/mL, the IC50 (HeLa cells) is reported as 179 ± 4 µg/mL and the IC50 (HeLa cells; Table 6) is reported as 179 µg/mL. For the same molecule, the Concentrations in plasma [2, 4] was “non-quantifiable”, the “levels in feces higher than the MIC for C. difficile ATCC 43255” value [2, 4] was > 100 fold and the “Conc. feces/MIC” value ([2]; dose 20 mg · kg^−1) was 108. For the same molecule, the concentration at 8 h ([2]; 20 mg/kg single oral administration, feces collected at 8 h, read-out: levels in feces) was 13000 ng/g, the “Drug concentration in fecal samples (mg kg^−1 feces)” value ([2]; single oral gavage, dose 20 mg · kg^−1, feces collected after 8 h) was 13 mg/kg and the “increase of MIC on serial passage” value [3] was 8 fold. For the same molecule, the MIC ([3]; ATCC43255, read-out: MIC after serial passage) was 1 µg/mL and the MIC ([3]; ATCC43255, read-out: starting MIC in serial passage) was 0.125 µg/mL.

In the case of `Cc1ncc([N+](=O)[O-])n1CCO` [MTZ, metronidazole, reference compound], the MIC [1] is reported as > 128 µg/mL.

In the case of `O=C(Nc1ncco1)c1cc(Oc2cccc(OC(F)(F)F)c2)ccn1` [Compound 108, N-(Oxazol-2-yl)-4-(3-(trifluoromethoxy)phenoxy)picolinamide], the IC50 (HeLa cells; Table 6) is reported as 93.3 ± 1.7 µg/mL (≈ 255 µM), the “Conc. feces/MIC” value ([2]; dose 20 mg · kg^−1) is reported as 49 and the concentration at 8 h [2, 5] is reported as 49000 ng/g.

In the case of `CCc1c(Cl)c(O)c(Cl)c(O)c1C(=O)O[C@H]1[C@H](O)[C@H](OC)[C@H](OC/C2=C\C=C\C[C@H](O)/C(C)=C/[C@H](CC)[C@@H](O[C@@H]3OC(C)(C)[C@@H](OC(=O)C(C)C)[C@H](O)[C@@H]3O)/C(C)=C/C(C)=C/C[C@@H]([C@@H](C)O)OC2=O)O[C@@H]1C` [FDX, fidaxomicin, reference compound], the MIC [1] is listed as > 128 µg/mL and the “Recurrence of CDI” value (CDI) is listed as 15%.

In the case of `O=C(Nc1ncco1)c1cc(-c2ccc(Cl)c(Cl)c2)ccn1` [Compound 87, 4-(3,4-Dichlorophenyl)-N-(oxazol-2-yl)picolinamide], the IC50 (HeLa cells; Table 6) is reported as 95.2 ± 1 µg/mL (≈ 285 µM), the “Conc. feces/MIC” value ([2]; dose 10 mg · kg^−1) is reported as 6.6 and the concentration at 8 h ([2]; single oral gavage, dose 10 mg · kg^−1, feces collected after 8 h, read-out: Drug concentration in fecal samples (mg kg^−1 feces)) is reported as 790 ng/g.

In the case of `O=C(Nc1ncco1)c1ccnc(-c2ccc(Cl)c(Cl)c2)c1` [Compound 4, 2-(3,4-Dichlorophenyl)-N-(oxazol-2-yl)isonicotinamide], the IC50 (HeLa cells; Table 6) is reported as 79.9 ± 1 µg/mL (≈ 239 µM), the “Conc. feces/MIC” value ([2]; dose 20 mg · kg^−1) is reported as 11 and the concentration at 8 h [2, 5] is reported as 2800 ng/g.

In the case of `CN[C@H](CC(C)C)C(=O)N[C@H]1C(=O)N[C@@H](CC(N)=O)C(=O)N[C@H]2C(=O)N[C@H]3C(=O)N[C@H](C(=O)N[C@H](C(=O)O)c4cc(O)cc(O)c4-c4cc3ccc4O)[C@H](O)c3ccc(c(Cl)c3)Oc3cc2cc(c3O[C@@H]2O[C@H](CO)[C@@H](O)[C@H](O)[C@H]2O[C@H]2C[C@](C)(N)[C@H](O)[C@H](C)O2)Oc2ccc(cc2Cl)[C@H]1O` [VAN, vancomycin, reference compound], the MIC [1] is reported as > 128 µg/mL, the “increase of MIC on serial passage” value [3] is reported as 8 fold and the MIC ([3]; C. difficile ATCC43255, sub-MIC concentrations, 25 passages, read-out: MIC after serial passage) is reported as 4 µg/mL (≈ 2.76 µM). For the same molecule, the “Recurrence of CDI” value (CDI) was 25%.
